Data taken from US20210087159A1, “TETRAHYDROCANNABINOLIC- CA[…] DERIVATIVES AND USES THEREOF” (AL&AM […]., priority 2018, published 2021).

Columns and labels:
Test in all cases: CellTiter-Glo cell viability assay, cancer cell cytotoxicity/anti-proliferation panel (Chempartner)
Format in all cases: cell-based
[1] = tested on: PC-3 ATCC prostate adenocarcinoma
[2] = tested on: Caco-2 ATCC colon adenocarcinoma
[3] = tested on: AsPC-1, pancreas, ductal carcinoma; conditions: for Inhibition: AsPC-1, 72 hours, compounds 10 μM starting, STS 2 μM starting, 10-pt, 3-fold dilution; for IC50: Homo sapiens, ASPC1, 72 h, read-out: IC50 (absolute IC50)
[4] = tested on: TE-6 RIKEN esophagus, carcinoma
[5] = 72 h, read-out: IC50 (absolute IC50)

Compound | IC50 [1, 5] | Inhibition ([1]; PC-3, 72 hours, compounds 10 μM starting, STS 2 μM starting, 10-pt, 3-fold dilution) | Inhibition ([2]; Caco-2, 72 hours, compounds 10 μM starting, STS 2 μM starting, 10-pt, 3-fold dilution) | IC50 ([2]; Homo sapiens, Caco-2, 72 h, read-out: IC50 (absolute IC50)) | Inhibition [3] | IC50 [3] | IC50 [4, 5] | Inhibition ([4]; TE-6, 72 hours, compounds 10 μM starting, STS 2 μM starting, 10-pt, 3-fold dilution)
CCCCCc1cc2c(c(O)c1C(=O)NCCCN1CCOCC1)[C@@H]1C=C(C)CC[C@H]1C(C)(C)O2 [Ia9, (6aR,0aR)-1-hydroxy-6,6,9-trimethyl-N-(3-morpholinopropyl)-3-pentyl-6a,7,8,10a-tetrahydro-6H-benzo[c]chromene-2-carboxamide] | 9.94 µM | 61.13% | 60.81% | 8.87 µM | 64.62% | 7.38 µM | 7.36 µM | 67.27%
CCCCCc1cc2c(c(O)c1C(=O)NCCN(C)C)[C@@H]1C=C(C)CC[C@H]1C(C)(C)O2 [Ia6, (6aR,0aR)—N-(2-(dimethylamino)ethyl)-1-hydroxy-6,6,9-trimethyl-3-pentyl-6a,7,8,10a-tetrahydro-6H-benzo[c]chromene-2-carboxamide] |  |  |  |  | 54.46% | 9.1 µM |  | 
